According to publication PMC7005646, “Overcoming resistance to anabolic SARM therapy in experimental cancer cachexia with an HDAC inhibitor” (EMBO Molecular Medicine, 2020):

Assays:
IIb HDACs = assay: In vitro HDAC inhibition assay, class IIb isoforms; assay type: biochemical, human; conditions: 1 μM AR‐42; range over isoforms
Procedure: HDAC activity was measured by a commercial vendor using human recombinant HDAC enzymes and fluorogenic HDAC substrates (Eurofins Cerep SA, Celle L'Evescault, France). Substrate concentrations ranged from 20 to 400 μM, and incubation conditions ranged from 10 to 90 min (RT or 37°C), depending on isoform. Results are expressed as percent inhibition of control specific activity in the presence of 1 μM AR‐42.

[1] = design: method as in Sborov et al, 2017; conditions: patients; ref Sborov et al, 2017; cited from earlier work
pSTAT3 (Y705) = assay: pSTAT3/tSTAT3 Western blot of gastrocnemius muscle; assay type: in vivo, mouse
Procedure: Western blots from all studies were performed on gastrocnemius muscle from representative animals lysed by Nonidet P‐40 isotonic lysis buffer [50 mM Tris–HCl, pH 7.5, 120 mM NaCl, 1% (v/v) Nonidet P‐40, 1 mM EDTA, 50 mM NaF, 40 mM glycerophosphate, and […] each of protease inhibitors (aprotinin, pepstatin, and leupeptin)]. Equivalent amounts of protein from each sample, as determined by the Bradford assay (Bio‐Rad), were resolved by SDS–PAGE and then transferred (semi‐dry) onto Immobilon nitrocellulose membranes (Millipore, Bellerica, MA). Membranes were washed twice with TBST [Tris‐buffered saline (TBS) containing 0.1% Tween‐20], blocked with 5% non‐fat milk in TBST for 1 h, and then washed an additional three times. Membranes were incubated with specific primary antibody in TBST (1:1,000) at 4°C overnight, washed three times (TBST), and then incubated with appropriate goat anti‐rabbit or anti‐mouse IgG–horseradish peroxidase‐conjugated secondary antibodies (1:5,000) at room temperature (1 h). Following additional washes (TBST), immunoblots were visualized as appropriate by ECL chemiluminescence (Amersham Biosciences, Little Chalfont, United Kingdom) or Duration HRP Chemiluminescence (Alkali Scientific, Florida, United States). Primary antibodies: phospho‐STAT3 (Tyr705) (D3A7) XP® rabbit mAb #9145, STAT3 (124H6) mouse mAb #9139 (Cell Signaling Technology, Danvers, MA); α‐tubulin (B‐7), sc‐5286 (Santa Cruz Biotechnologies, Santa Cruz, CA); androgen receptor (EP670Y), ab52615 (Abcam, Cambridge, MA) and GAPDH (6C5), sc‐32233 (Santa Cruz Biotechnologies, Santa Cruz, CA).

C‐26 tumor‐bearing mice [2] = assay: Confirmatory AR‐42/GTx‐024 combination study (Study 2), male C‐26 tumor‐bearing mice; assay type: in vivo, mouse
Procedure: (§1) These studies were performed as previously described (Tseng et al, 2015a) with modifications. Tumors were established in the right flank of CD2F1 mice by subcutaneous injection of C‐26 cells (0.5 × 10^6 cells in 0.1 ml). […] TFM‐4AS‐1 (a potent experimental SARM), DHT, and vehicles were administered by subcutaneous injection.
This confirmatory study was performed exactly as Study 1 with expanded animal numbers. Tumor‐free control groups were maintained at 6 animals each, whereas 10 animals were included in each of the tumor‐bearing groups. […] Grip strength was measured on study days 0 (baseline) and 16. Due to rapid model progression, this study was terminated on day 17 after only 12 days of treatment.
Forelimb grip strength was measured using Bio‐GS3 Grip Strength Test Meter (Forceleader DBA Bioseb, Pinellas Park, FL). Each mouse was held by the base of its tail and lowered over the apparatus until its forepaws grasped the metal pull bar. The mouse was then gently pulled horizontally in a straight line away from the grip strength meter until the mouse released the bar. The force applied to the bar at the moment of release was recorded as the peak force. Five measurements were taken from each mouse, the average of which was designated as the mouse's grip strength.

C‐26 tumor‐bearing mice [3] = assay: AR‐42 dose–response study in the C‐26 cachexia model; assay type: in vivo, mouse
Procedure: as §1
Therefore the efficacy and associated exposures of reduced doses of AR‐42 were determined. Male CD2F1 mice were stratified by body weight and then randomly assigned into five groups of six animals each. C‐26 tumors were established in four of the groups, while those in the fifth group, serving as tumor‐free controls, were injected with sterile saline. Six days later, animals with palpable tumors were treated with AR‐42 once daily at 10 (n = 5) and 20 mg/kg (n = 6), and every other day at 50 mg/kg (n = 5, the originally described anti‐cachectic dose; Tseng et al, 2015a), or vehicle control (n = 4) for 13 days. Upon sacrifice on study day 18, when the majority of tumor‐bearing control mice met euthanasia criteria, the left gastrocnemius muscle was excised, flash‐frozen in liquid nitrogen, and stored at −80°C for subsequent analyses. Carcass weights were corrected for tumor weight by assuming a tumor density equivalent to water (1 g/cm^3). […] This study was performed as described above with animals treated with AR‐42 once daily at 1, 3, and 10 mg/kg or with vehicle control (n = 8).

pSTAT3 in C‐26 tumors = assay: Phospho‐STAT3/STAT3 ELISA in C‐26 tumor tissues, Study 2; assay type: in vivo, mouse; conditions: Study 2, 10 mg/kg
Procedure: Expression of phospho‐STAT3 and total STAT3 in C‐26 tumor tissues was measured using commercial sandwich ELISA kits according to the manufacturer's instructions (PathScan® Phospho‐Stat3, #7300, and Total Stat3, #7305, Cell Signaling Technology, Danvers, MA).

[4] = Study 2, AR‐42 10 mg/kg alone or with GTx‐024 15 mg/kg

CC(C)[C@H](C(=O)Nc1ccc(C(=O)NO)cc1)c1ccccc1 [AR‐42]
inhibition of class IIb HDACs (IIb HDACs): 86–100% | well‐tolerated plasma exposure in humans [1]: 8.5 µM·h | pSTAT3 in gastrocnemius (pSTAT3 (Y705); female C‐26 tumor‐bearing mice, Study 3): reduced levels of pSTAT3 activation | pSTAT3 in gastrocnemius (pSTAT3 (Y705); male C‐26 tumor‐bearing mice, Study 1): reduced pSTAT3 but not equally in all animals | effect on adipose tissue (epididymal fat pad) (C‐26 tumor‐bearing mice [2]; Study 2, 10 mg/kg): no impact on adipose tissue | forelimb grip strength over vehicle‐treated tumor‐bearing controls (C‐26 tumor‐bearing mice [2]; [4]): improved grip strength | gastrocnemius and quadriceps mass relative to GTx‐024 monotherapy (C‐26 tumor‐bearing mice [2]; [4]): significantly improved gastrocnemius and quadriceps mass | minimally efficacious dose (anti‐cachectic) (C‐26 tumor‐bearing mice [3]; daily oral, 13 days, C‐26 model): 10 mg/kg | effect on C‐26 tumor‐mediated reductions in tumor‐corrected body weight and gastrocnemius mass (C‐26 tumor‐bearing mice [3]; lower doses (1, 3 mg/kg daily)): not effective | effect on C‐26 tumor‐mediated reductions in tumor‐corrected body weight and gastrocnemius mass (C‐26 tumor‐bearing mice [3]; thirteen daily oral doses of 20 or 10 mg/kg): ameliorated | pSTAT3 signaling within the C‐26 tumors (pSTAT3 in C‐26 tumors): did not significantly suppress
